Experiment [1] deals with T1, 5-HT3A receptors (Mus musculus, UniProt P23979).
T1 construct: expressed in transfected cells; host or cells: Xenopus laevis oocytes injected with cRNA (pGEMHE)
T1 sequence (P23979 24-489): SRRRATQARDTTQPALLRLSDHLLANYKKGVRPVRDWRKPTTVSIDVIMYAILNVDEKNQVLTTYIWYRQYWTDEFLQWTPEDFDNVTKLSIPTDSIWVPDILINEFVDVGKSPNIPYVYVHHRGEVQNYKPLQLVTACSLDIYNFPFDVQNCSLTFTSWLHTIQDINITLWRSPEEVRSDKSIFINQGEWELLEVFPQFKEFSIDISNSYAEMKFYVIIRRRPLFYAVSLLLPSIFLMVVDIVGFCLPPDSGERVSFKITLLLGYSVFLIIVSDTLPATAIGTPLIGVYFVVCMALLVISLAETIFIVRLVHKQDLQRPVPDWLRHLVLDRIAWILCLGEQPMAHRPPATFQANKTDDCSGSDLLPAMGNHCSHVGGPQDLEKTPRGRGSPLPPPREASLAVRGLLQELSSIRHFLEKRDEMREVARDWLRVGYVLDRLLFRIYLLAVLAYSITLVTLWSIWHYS
Description: [3H]granisetron binding to membranes of transfected HEK 293 cells, 5-HT3A receptors. The protocol:
(§1) Mouse 5-HT3A (accession number: AY605711) or 5-HT3B (accession number: NM_020274, kindly provided by Ewen Kirkness) subunit cDNAs were cloned into pGEMHE for oocyte expression ([Liman et al., 1992]). cRNA was in vitro transcribed from linearised (NheI) plasmid cDNA template using the mMessage mMachine T7 kit (Ambion, Austin, Texas, USA). Stage V and VI oocytes were injected with 50 ng–100 ng cRNA, and recorded from 1–4 days post-injection. For expression in HEK 293 cells, 5-HT3 receptor subunit cDNAs were cloned into pcDNA3.1 (Invitrogen Ltd., Paisley, UK.). Mutagenesis reactions were performed using the Kunkel method and confirmed by DNA sequencing. Cells were transfected using calcium phosphate precipitation at 80–90% confluency ([Jordan et al., 1996]). Following transfection cells were incubated for 3–4 days before assay.
(§2) This was undertaken in HEK 293 cells which provide an established and robust method of studying ligand binding. Methods were as previously described ([Lummis et al., 1993]), with minor modifications. Briefly, transfected HEK 293 cells were washed twice with phosphate buffered saline (PBS) at room temperature and scraped into 1 ml of ice-cold HEPES buffer (10 mM, pH 7.4) containing the following proteinase inhibitors (PI): 1 mM EDTA, 50 μg ml^− 1 soybean trypsin inhibitor, 50 μg/ml bacitracin and 0.1 mM phenylmethylsulphonyl fluoride. […] Competition binding was performed using ligand concentrations from 0.1 μM–10 mM. Reactions were incubated for at least 1 h at 4 °C and terminated by vacuum filtration using a Brandel cell harvester onto GF/B filters pre-soaked in 0.3% polyethyleneimine. Radioactivity was determined by scintillation counting using a Beckman LS6000SC (Fullerton, California, USA). Competition binding data were analyzed by iterative curve fitting (GraphPad Prism v3.02, GraphPad Software, San Diego, California, USA), according to the equation: y=Bmin+Bmax−Bmin/1+10^[L]−logIC50 where Bmin is the lowest total binding, Bmax is the maximum specific binding at equilibrium, [L] is the concentration of competing ligand and IC50 is the concentration of competing ligand that blocks half of the specific bound radioligand. Ki values were estimated from IC50 values using the Cheng–Prusoff equation: Ki=IC50/1+[L]/Kd
(§3) where Ki is the equilibrium dissociation constant for binding of the unlabeled antagonist, [L] is the concentration of radioligand and Kd is the equilibrium dissociation constant of the radioligand.

The target in experiment [2] is T1, 5-HT3A receptors. Description: Agonist-induced currents in Xenopus oocytes expressing 5-HT3A receptors (OpusXpress electrophysiology). Format: cell-based. The protocol: (§4) Harvested stage V–VI Xenopus oocytes were washed in six changes of ND96 (96 mM NaCl, 2 mM KCl, 1 mM MgCl2, 1.8 mM CaCl2, 5 mM HEPES, pH 7.5), de-folliculated in 1.5 mg ml^− 1 collagenase Type 1A for approximately 2 h. Enzyme treatment was terminated by washing in six changes of ND96 and oocytes were stored in ND96 containing 2.5 mM sodium pyruvate, […] and 0.7 mM theophylline.
as §1
(§5) Agonist-induced currents were recorded at 22–25 °C from individual oocytes using the OpusXpress system (Molecular Devices Axon Instruments, Union City, CA). […] The holding potential was − 60 mV.

Experiment [3] concerns the target T2, 5-HT3AB receptors (Mus musculus, UniProt P23979+Q9JHJ5).
T2 construct: expressed in transfected cells; host or cells: Xenopus laevis oocytes injected with cRNA (pGEMHE)
T2 sequence (P23979 24-489): T1 sequence (P23979 24-489)
T2 sequence (Q9JHJ5 22-437): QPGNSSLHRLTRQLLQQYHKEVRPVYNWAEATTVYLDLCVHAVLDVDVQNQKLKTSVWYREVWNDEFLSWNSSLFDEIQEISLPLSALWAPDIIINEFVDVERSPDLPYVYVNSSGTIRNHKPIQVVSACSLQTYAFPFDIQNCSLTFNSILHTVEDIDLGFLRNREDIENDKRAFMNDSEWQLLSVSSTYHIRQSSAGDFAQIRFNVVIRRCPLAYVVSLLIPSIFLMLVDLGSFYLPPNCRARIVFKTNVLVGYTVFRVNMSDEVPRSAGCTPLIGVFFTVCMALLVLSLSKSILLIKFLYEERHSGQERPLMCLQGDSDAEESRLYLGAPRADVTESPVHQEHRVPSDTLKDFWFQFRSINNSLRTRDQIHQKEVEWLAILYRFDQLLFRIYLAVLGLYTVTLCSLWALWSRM
Description: Agonist-induced currents in Xenopus oocytes expressing 5-HT3AB receptors (OpusXpress electrophysiology). Format: cell-based. How it is done:
as §4, §1, §5

For experiment [4], the target named is T2, 5-HT3AB receptors. The experiment can be described thus: [3H]granisetron binding to membranes of transfected HEK 293 cells, 5-HT3AB receptors. The protocol: as §1, §2, §3

For orientation: Ki means the equilibrium dissociation constant of an inhibitor or competing ligand from its target. Low values mean a stronger hold on the target, high ones a looser hold on the target. The EC50 is the concentration at which the effect is half-maximal. Higher therefore signals a less potent agent.

Where “and” joins values, the source holds several entries; their conditions need not be identical. Equal entries are not always repeated.

Regarding `NCCc1c[nH]c2ccc(F)cc12` [5-FT, 5-fluorotryptamine], the “Ki relative to the Ki for 5-HT” value at 5-HT3A receptors [1] (5-HT3A receptors, fold greater than 5-HT) was roughly 10 fold. Further, the Ki at 5-HT3A receptors [1] (Ki, displacement of [3H]granisetron binding, WT 5-HT3A receptors, HEK 293 membranes, 0.5 nM [3H]granisetron, 4 °C) is 800 nM and 830 nM; on 5-HT3AB receptors [4], 1800 ± 400 nM. Further, the agonist character result at 5-HT3A receptors [2] (5-HT3A receptors) and on 5-HT3AB receptors [3] (5-HT3AB receptors) was “partial agonist” throughout. Also, the “nH (Hill slope)” value on 5-HT3A receptors [2] (5-HT3A receptors in Xenopus oocytes) was 2.4 and 2.4 ± 0.5; at 5-HT3AB receptors [3] (5-HT3AB receptors in Xenopus oocytes) it was 1.4 and 1.4 ± 0.3. Also, the “Relative efficacy Rmax = Imax drug / Imax 5-HT” value at 5-HT3A receptors [2] (5-HT3A receptors in Xenopus oocytes, maximal concentration) is 0.64 and 0.64 ± 0.03; on 5-HT3AB receptors [3] (5-HT3AB receptors in Xenopus oocytes, maximal concentration) it was 0.45 and 0.45 ± 0.04. Besides, the EC50 at 5-HT3A receptors [2] (EC50, 5-HT3A receptors in Xenopus oocytes, holding potential -60 mV) worked out at 16000 nM; on 5-HT3AB receptors [3] (EC50, 5-HT3AB receptors in Xenopus oocytes, holding potential -60 mV) it was 27000 nM. Also, the “Rmax, approximate summary value” on 5-HT3A receptors [2] (discussion, stated for 5-HT3 receptors (5-HT3A and 5-HT3AB) without distinction) is listed as roughly 0.5.
